Converted amounts (≈) assume the structure as drawn. The source made the active and inactive calls. No cut-off for these calls is given here.
How the values were obtained:
[1] = Inhibition of NF-kappaB activation transfected in PMA-stimulated HEK293 cells after 16 hrs by luciferase reporter gene assay; format: cell-based; settings: HEK293, 16 h
[2] = target: Tyrosine-protein kinase JAK2 (Homo sapiens) (UniProt O60674); experiment: Inhibition of JAK2 at 10 uM
[3] = target: T1, Serine/threonine-protein kinase tousled-like 1 (Homo sapiens) (UniProt Q9UKI8); experiment: Inhibition of TLK1 at 10 uM
T1 sequence (whole entry): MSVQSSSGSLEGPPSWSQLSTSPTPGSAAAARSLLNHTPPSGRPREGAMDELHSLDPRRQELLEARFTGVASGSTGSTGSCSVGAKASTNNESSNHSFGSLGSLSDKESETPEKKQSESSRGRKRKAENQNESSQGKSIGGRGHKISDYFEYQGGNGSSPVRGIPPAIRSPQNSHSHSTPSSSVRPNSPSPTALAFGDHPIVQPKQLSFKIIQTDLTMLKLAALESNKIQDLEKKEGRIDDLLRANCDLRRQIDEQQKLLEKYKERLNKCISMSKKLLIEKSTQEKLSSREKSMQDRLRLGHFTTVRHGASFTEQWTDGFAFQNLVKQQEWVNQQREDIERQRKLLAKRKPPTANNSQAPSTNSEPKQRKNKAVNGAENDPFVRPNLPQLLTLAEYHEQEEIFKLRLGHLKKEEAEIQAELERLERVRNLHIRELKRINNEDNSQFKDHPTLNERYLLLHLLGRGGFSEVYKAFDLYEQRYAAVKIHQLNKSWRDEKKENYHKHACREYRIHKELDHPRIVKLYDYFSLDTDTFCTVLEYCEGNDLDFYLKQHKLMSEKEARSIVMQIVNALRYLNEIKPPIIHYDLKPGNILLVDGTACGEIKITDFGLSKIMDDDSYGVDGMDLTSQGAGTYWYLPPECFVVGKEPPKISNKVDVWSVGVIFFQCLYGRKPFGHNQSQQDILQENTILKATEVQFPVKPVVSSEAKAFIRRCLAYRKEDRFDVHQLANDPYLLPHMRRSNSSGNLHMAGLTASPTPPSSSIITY

[4] = target: RAF proto-oncogene serine/threonine-protein kinase (Homo sapiens) (UniProt P04049); experiment: Inhibition of raf kinase at 10 uM
[5] = target: T2, Inhibitor of nuclear factor kappa-B kinase subunit beta (Homo sapiens) (UniProt O14920); experiment: Inhibition of IKK-beta up to 8 uM
T2 sequence (whole entry): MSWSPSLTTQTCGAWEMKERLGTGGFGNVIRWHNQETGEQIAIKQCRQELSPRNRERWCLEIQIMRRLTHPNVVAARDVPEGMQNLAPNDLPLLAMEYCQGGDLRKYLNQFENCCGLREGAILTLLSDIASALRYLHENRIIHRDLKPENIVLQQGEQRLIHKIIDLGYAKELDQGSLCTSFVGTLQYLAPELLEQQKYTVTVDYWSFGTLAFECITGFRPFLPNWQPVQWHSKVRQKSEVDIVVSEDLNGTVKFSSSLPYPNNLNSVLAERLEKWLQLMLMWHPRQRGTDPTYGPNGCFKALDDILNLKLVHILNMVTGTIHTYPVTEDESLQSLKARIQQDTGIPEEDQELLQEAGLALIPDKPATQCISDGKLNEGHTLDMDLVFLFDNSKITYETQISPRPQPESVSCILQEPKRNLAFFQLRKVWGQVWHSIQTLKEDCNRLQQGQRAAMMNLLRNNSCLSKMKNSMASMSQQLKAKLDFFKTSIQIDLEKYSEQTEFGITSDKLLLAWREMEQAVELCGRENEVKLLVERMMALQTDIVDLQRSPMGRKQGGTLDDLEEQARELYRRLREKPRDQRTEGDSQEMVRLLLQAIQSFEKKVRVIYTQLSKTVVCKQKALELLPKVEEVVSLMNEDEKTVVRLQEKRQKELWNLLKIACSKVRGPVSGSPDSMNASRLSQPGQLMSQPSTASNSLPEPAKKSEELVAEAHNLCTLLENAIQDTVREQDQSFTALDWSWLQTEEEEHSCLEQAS

[6] = target: Protein kinase C theta type (Homo sapiens) (UniProt Q04759); experiment: Inhibition of PKCtheta up to 8 uM
[7] = target: Protein kinase C beta type (Homo sapiens) (UniProt P05771); experiment: Inhibition of PKCbeta up to 8 uM
[8] = Drug level in mouse blood at 50 mg/kg, ip after 3 hrs by LC/MS analysis; format: ADME, organism-based; design: dose 50 mg/kg, route intraperitoneal; settings: whole blood, read-out: Drug uptake
[9] = Drug level in mouse blood at 50 mg/kg, ip after 0.5 hrs by LC/MS analysis; format: ADME, organism-based; design: dose 50 mg/kg, route intraperitoneal; settings: whole blood, read-out: Drug uptake
[10] = Drug level in mouse blood at 30 mg/kg, ip after 3 hrs by LC/MS analysis; format: ADME, organism-based; design: dose 30 mg/kg, route intraperitoneal; settings: whole blood, read-out: Drug uptake
[11] = Drug level in mouse blood at 30 mg/kg, ip after 0.5 hrs by LC/MS analysis; format: ADME, organism-based; design: dose 30 mg/kg, route intraperitoneal; settings: whole blood, read-out: Drug uptake
[12] = Drug level in mouse blood at 10 mg/kg, ip after 3 hrs by LC/MS analysis; format: ADME, organism-based; design: dose 10 mg/kg, route intraperitoneal; settings: whole blood, read-out: Drug uptake
[13] = Drug level in mouse blood at 10 mg/kg, ip after 0.5 hrs by LC/MS analysis; format: ADME, organism-based; design: dose 10 mg/kg, route intraperitoneal; settings: whole blood, read-out: Drug uptake
[14] = Cytotoxicity against human HEK293 cells after 24 hrs by ATP-lite 1-step assay; format: cell-based; settings: read-out: LD50
[15] = Cytotoxicity against human Fa2N-4 cells after 24 hrs by ATP-lite 1-step assay; format: cell-based; settings: read-out: LD50
[16] = Metabolic stability in mouse liver microsomes assessed as compound remaining at 1 uM after 1 hr by LC/MS/MS analysis; format: ADME, Microsome; settings: read-out: Stability
[17] = Metabolic stability in mouse liver microsomes assessed as compound remaining at 10 uM after 1 hr by LC/MS/MS analysis; format: ADME, Microsome; settings: read-out: Stability
[18] = Metabolic stability in human liver microsomes assessed as compound remaining at 1 uM after 1 hr by LC/MS/MS analysis; format: ADME, Microsome; settings: read-out: Stability
[19] = Metabolic stability in human liver microsomes assessed as compound remaining at 10 uM after 1 hr by LC/MS/MS analysis; format: ADME, Microsome; settings: read-out: Stability
[20] = Permeability at 50 uM at pH 7.4 by PAMPA; format: ADME; settings: pH 7.4, 50 µM
[21] = Permeability at 50 uM at pH 5 by PAMPA; format: ADME; settings: pH 5, 50 µM
[22] = Permeability at 50 uM at pH 6.2 by PAMPA; format: ADME; settings: pH 6.2, 50 µM
[23] = Aqueous solubility at pH 7.4 after 18 hrs by UV kinetic solubility method; format: physicochemical; settings: aqueous medium
[24] = Aqueous solubility at pH 6.2 after 18 hrs by UV kinetic solubility method; format: physicochemical; settings: aqueous medium
HEK293 = experiment: Inhibition of NF-kappaB activation transfected in TNF-alpha-stimulated HEK293 cells after 16 hrs by luciferase reporter gene assay; format: cell-based
[25] = Aqueous solubility at pH 5 after 18 hrs by UV kinetic solubility method; format: physicochemical; settings: aqueous medium

Protein kinase C beta type (Homo sapiens), sequence (P05771 2-671 limits assumed): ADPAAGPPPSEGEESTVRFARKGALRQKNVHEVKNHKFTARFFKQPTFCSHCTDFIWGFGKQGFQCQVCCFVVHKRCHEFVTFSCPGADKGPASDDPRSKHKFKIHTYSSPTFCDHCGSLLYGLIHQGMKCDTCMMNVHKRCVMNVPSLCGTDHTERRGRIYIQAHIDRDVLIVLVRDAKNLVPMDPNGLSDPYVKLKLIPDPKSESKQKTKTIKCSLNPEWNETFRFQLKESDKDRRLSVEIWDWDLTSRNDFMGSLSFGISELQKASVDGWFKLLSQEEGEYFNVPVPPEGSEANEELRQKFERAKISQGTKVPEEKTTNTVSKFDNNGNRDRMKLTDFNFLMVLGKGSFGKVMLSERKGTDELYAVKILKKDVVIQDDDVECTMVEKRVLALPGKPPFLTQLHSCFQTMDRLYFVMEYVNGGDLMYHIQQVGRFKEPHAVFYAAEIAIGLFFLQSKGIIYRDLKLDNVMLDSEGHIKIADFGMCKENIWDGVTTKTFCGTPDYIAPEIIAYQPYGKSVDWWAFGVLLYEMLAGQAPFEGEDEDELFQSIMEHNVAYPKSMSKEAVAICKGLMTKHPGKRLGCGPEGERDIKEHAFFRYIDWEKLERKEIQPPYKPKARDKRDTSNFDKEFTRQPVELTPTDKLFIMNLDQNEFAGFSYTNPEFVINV
RAF proto-oncogene serine/threonine-protein kinase (Homo sapiens), sequence (P04049 whole entry): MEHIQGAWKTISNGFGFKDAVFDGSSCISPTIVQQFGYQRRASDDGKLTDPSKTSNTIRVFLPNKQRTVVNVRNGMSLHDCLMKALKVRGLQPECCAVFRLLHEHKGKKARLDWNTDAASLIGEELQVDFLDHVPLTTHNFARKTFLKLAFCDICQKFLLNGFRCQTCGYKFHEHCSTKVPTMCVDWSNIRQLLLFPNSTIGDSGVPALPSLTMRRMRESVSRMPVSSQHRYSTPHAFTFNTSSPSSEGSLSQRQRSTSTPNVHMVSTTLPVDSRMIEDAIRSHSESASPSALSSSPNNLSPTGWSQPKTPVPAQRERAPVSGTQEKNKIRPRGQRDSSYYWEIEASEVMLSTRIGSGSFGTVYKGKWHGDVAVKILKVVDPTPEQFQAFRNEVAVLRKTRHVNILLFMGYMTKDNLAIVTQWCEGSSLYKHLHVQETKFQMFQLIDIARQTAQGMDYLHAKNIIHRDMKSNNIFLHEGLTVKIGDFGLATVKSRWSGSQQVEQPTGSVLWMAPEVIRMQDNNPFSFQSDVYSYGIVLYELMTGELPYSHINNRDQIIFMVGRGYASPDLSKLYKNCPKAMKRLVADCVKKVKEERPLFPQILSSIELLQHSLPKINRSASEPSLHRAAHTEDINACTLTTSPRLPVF
Protein kinase C theta type (Homo sapiens), sequence (Q04759 whole entry, looked up): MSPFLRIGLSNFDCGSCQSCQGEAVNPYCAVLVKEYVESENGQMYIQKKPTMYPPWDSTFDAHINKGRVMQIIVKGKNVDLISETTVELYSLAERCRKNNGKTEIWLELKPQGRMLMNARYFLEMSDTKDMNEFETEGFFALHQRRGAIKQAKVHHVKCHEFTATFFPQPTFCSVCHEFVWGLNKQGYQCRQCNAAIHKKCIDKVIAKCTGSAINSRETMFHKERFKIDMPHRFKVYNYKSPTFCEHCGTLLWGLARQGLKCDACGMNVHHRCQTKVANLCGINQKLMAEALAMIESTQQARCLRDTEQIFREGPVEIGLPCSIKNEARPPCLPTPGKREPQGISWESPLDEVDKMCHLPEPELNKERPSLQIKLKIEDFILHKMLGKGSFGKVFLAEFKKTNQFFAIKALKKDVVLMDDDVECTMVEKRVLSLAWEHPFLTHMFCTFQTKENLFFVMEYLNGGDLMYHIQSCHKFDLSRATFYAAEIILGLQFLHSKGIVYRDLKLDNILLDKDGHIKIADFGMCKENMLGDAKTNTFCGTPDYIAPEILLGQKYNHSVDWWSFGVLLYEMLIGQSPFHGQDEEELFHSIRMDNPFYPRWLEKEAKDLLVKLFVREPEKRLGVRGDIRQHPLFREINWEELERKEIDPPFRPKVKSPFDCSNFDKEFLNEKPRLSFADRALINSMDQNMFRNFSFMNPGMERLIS
Tyrosine-protein kinase JAK2 (Homo sapiens), sequence (O60674 whole entry): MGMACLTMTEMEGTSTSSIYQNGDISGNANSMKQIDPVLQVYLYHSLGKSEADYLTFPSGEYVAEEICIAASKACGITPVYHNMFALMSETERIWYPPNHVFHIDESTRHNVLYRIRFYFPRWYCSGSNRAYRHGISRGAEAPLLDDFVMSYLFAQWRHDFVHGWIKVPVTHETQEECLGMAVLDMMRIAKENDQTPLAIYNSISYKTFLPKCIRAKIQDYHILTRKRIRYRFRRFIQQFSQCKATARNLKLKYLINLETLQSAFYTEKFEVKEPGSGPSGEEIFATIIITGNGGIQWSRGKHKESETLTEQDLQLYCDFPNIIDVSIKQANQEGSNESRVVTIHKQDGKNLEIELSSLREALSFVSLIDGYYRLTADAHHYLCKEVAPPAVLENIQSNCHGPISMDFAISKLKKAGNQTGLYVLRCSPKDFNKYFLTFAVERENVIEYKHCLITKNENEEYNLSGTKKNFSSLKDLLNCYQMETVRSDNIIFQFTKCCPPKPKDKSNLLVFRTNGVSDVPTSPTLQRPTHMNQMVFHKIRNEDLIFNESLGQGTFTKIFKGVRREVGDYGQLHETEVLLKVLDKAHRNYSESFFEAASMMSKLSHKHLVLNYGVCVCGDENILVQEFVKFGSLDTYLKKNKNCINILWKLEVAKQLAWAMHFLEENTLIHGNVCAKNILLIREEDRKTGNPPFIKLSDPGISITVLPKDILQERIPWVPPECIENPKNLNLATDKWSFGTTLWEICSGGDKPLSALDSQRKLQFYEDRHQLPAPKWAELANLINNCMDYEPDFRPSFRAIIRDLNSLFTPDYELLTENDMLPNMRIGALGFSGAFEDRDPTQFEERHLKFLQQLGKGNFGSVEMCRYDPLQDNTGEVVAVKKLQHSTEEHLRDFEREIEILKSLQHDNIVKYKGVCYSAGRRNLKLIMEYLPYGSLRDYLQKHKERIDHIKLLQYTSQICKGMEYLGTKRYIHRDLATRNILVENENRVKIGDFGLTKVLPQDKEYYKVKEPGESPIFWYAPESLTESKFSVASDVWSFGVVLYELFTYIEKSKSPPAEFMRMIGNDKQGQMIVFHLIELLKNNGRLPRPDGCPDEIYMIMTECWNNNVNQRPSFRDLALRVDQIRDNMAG

Q: With `Cc1cc2nc(NCCCO)n(CC(=O)c3cccc(OC(C)(C)C)c3)c2cc1C` as the compound, how does the IC50 [1] read?
A: 16000 nM

Q: Which IC50 [1] does the source give for `CC(C)(C)c1cc(C(=O)Cn2c(NCCCO)nc3ccc(N)cc32)cc(C(C)(C)C)c1O` here?
A: 400 nM

Q: Which IC50 [1] does the source give for `Cc1cc2nc(NCCCO)n(CC(=O)c3cccc(C(C)(C)C)c3)c2cc1C` here?
A: 11000 nM

Q: With `CC(C)(C)c1cc(C(=O)Cn2c(NCCCO)nc3ccc([N+](=O)[O-])cc32)cc(C(C)(C)C)c1O` as the compound, how does the IC50 [1] read?
A: > 8000 nM

Q: For `Cc1cc2nc(NCCCO)n(CC(=O)c3cc(C(C)(C)C)cc(C(C)(C)C)c3)c2cc1C`, which IC50 [1] is on record?
A: 100 nM

Q: With `CC(C)(C)c1cc(C(=O)Cn2c(NCCCO)nc3ccc(Br)cc32)cc(C(C)(C)C)c1O` as the compound, how does the IC50 [1] read?
A: 6000 nM

Q: Which IC50 [1] does the source give for `CCCCNc1nc2cc(C)c(C)cc2n1CC(=O)c1cc(C(C)(C)C)c(O)c(C(C)(C)C)c1` here?
A: 800 nM

Q: What does the source list for `Cc1cc2nc(NCCCO)n(CC(=O)c3cc(C(C)(C)C)c(O)c(C(C)(C)C)c3)c2cc1C`?
A: inhibition [2]: 53%; inhibition [3]: 70%; inhibition [4]: 57%; inhibition [5]: inactive; inhibition [6]: inactive; inhibition [7]: inactive; concentration at 3 h [8]: 6.96 µM; concentration at 0.5 h [9]: 5.93 µM; concentration at 3 h [10]: 3.64 µM; concentration at 0.5 h [11]: 8.28 µM; concentration at 3 h [12]: 500 nM; concentration at 0.5 h [13]: 1810 nM; CC50 at 24 h [14]: 40 µM; CC50 at 24 h [15]: 47 µM; remaining at 1 h, 1 µM [16]: 0.5%; remaining at 1 h, 10 µM [17]: 19%; remaining at 1 h, 1 µM [18]: 26%; remaining at 1 h, 10 µM [19]: 55%; permeability [20]: 441 ×10⁻⁶ cm/s; permeability [21]: 299 ×10⁻⁶ cm/s; permeability [22]: 710 ×10⁻⁶ cm/s; solubility kinetic at 18 h [23]: 0.7 µg/mL (≈ 1.5 µM); solubility kinetic at 18 h [24]: 0.5 µg/mL (≈ 1.07 µM); inhibition (HEK293): inactive; solubility kinetic at 18 h [25]: 42 µg/mL (≈ 90.2 µM)

Q: With `CC(C)(C)c1cc(C(=O)Cn2c(NCCCO)nc3cc(-c4ccccc4)ccc32)cc(C(C)(C)C)c1O` as the compound, how does the IC50 [1] read?
A: 600 nM

Q: Which IC50 [1] does the source give for `CC(C)(C)c1cc(C(=O)Cn2c(NCCCO)nc3cc(C(=O)c4ccccc4)ccc32)cc(C(C)(C)C)c1O` here?
A: 1800 nM

Q: With `Cc1cc2nc(NC3CCC(O)CC3)n(CC(=O)c3cc(C(C)(C)C)c(O)c(C(C)(C)C)c3)c2cc1C` (configuration not stated) as the compound, how does the IC50 [1] read?
A: 100 nM

Q: Which IC50 [1] does the source give for `CC(C)(C)c1cc(C(=O)Cn2c(NCCCO)nc3cc([N+](=O)[O-])ccc32)cc(C(C)(C)C)c1O` here?
A: 2000 nM

Q: Which IC50 [1] does the source give for `CC(C)(C)c1cc(C(=O)Cn2c(NCCCO)nc3cc(N)ccc32)cc(C(C)(C)C)c1O` here?
A: 800 nM

Q: With `CC(C)(C)c1cc(C(=O)Cn2c(NCCCO)nc3cc(Br)ccc32)cc(C(C)(C)C)c1O` as the compound, how does the IC50 [1] read?
A: 3000 nM

Q: For `CC(C)(C)c1cc(C(=O)Cn2c(NCCCO)nc3ccc(-c4ccccc4)cc32)cc(C(C)(C)C)c1O`, which IC50 [1] is on record?
A: 900 nM

Q: With `Cc1cc2nc(N3CCC(O)CC3)n(CC(=O)c3cc(C(C)(C)C)c(O)c(C(C)(C)C)c3)c2cc1C` as the compound, how does the IC50 [1] read?
A: 13000 nM

Q: With `CNc1nc2cc(C)c(C)cc2n1CC(=O)c1cc(C(C)(C)C)c(O)c(C(C)(C)C)c1` as the compound, how does the IC50 [1] read?
A: 300 nM

Q: Which IC50 [1] does the source give for `COCCCNc1nc2cc(C)c(C)cc2n1CC(=O)c1cc(C(C)(C)C)c(O)c(C(C)(C)C)c1` here?
A: 300 nM

Source: ChEMBL document CHEMBL1177698, “Inhibition of protein kinase C-driven nuclear factor-kappaB activation: synthesis, structure-activity relationship, and pharmacological profiling of pathway specific benzimidazole probe molecules” (J Med Chem, 2010)
